In ChEMBL document CHEMBL2331478, “Evaluation of constituents of Piper retrofractum fruits on neurotrophic activity” (J Nat Prod, 2013):
The source made the active and inactive calls. No cut-off for these calls is given here.

Assays:
PC-12 [1] = test: Potentiation of NGF-induced neurite outgrowth in rat PC12 cells at 0.1 to 10 uM after 4 days using methylene blue staining by phase-contrast microscopy; format: functional, cell-based
PC-12 [2] = test: Potentiation of NGF-induced neurite outgrowth in rat PC12 cells after 4 days using methylene blue staining by phase-contrast microscopy; format: functional, cell-based

Compound	Activity (PC-12 [1])	Activity (PC-12 [2])
O=C(/C=C/CCCCCCCC/C=C/c1ccc2c(c1)OCO2)N1CCCCC1	inactive	–
CCCCC/C=C\CCCC/C=C/C=C/C(=O)NCC(C)C	inactive	–
O=C(/C=C/C=C/c1ccc2c(c1)OCO2)N1CCCCC1	inactive	–
O=C(CCC(=O)c1ccc2c(c1)OCO2)C(=O)N1CCCCC1	–	Dose-dependent effect
